Experimental data published in article PMC4351150 (Cancer immunology research, 2015).
Several values for one entry are separate records, joined by “and”; a condition that tells them apart may be missing. Equal entries are not always repeated.

How the values were obtained:
[1] = system: CD8^+ T cells of HLA-A*02:01-expressing post-SCT AML patients; assay: PE-peptide/HLA-A*02:01 tetramer flow cytometry of post-SCT AML patient PBMCs; assay type: cell-based
[2] = system: CD8^+ TCRβ repertoire of Patient 5; assay: Bulk TCRβ repertoire sequencing: mapping of tetramer-associated TCRβ clonotypes; set-up: species or system human; conditions: for total share of tetramer-associated TCRβ clonotypes in TCRβ repertoire: Patient 5, sample 2 months later, 3×10^6 CD8^+ cells, Illumina HiSeq
HLA-A*02:01 = HLA-A*02:01 (Homo sapiens, UniProt P04439, D140Y/D185E/D98H/E176V/E277Q/G131W/G231S/I119V/I121R/I166T/I218V/L300P/L318F/N151K/N90K/P208A/P217A/Q86G/Q94H/R138H/R169H/T345S); assay: iTopia binding affinity assay
CD8^+ cells = assay type: cell-based; conditions: UNC-CDK4-1-pulsed T2 cells as stimulators; % of CD8^+ cells (Supplementary Figure 1)

Sequence	tetramer frequency, % of CD8^+ cells (positive patients) ([1]; 3 of 6 post-SCT AML patients, PE-UNC-CDK4-1/HLA-A*02:01 tetramer, 4°C, 25 minutes, threshold >0.01%)	tetramer^+ T-cell population frequency in Patient 5 ([1]; Patient 5, day +567 post-SCT, CMV seropositive, not viremic)	total share of tetramer-associated TCRβ clonotypes in TCRβ repertoire [2]	mean enrichment ratio of tetramer-associated clonotypes ([2]; clonotype frequency in tetramer^+ gate / clonotype frequency in bulk repertoire, Patient 5, t-test p < 0.0001 between antigens)	binding affinity to HLA-A*02:01 (HLA-A*02:01)	CD8^+ cells specific for UNC-CDK4-1 (CD8^+ cells)
ALTPVVVTL [UNC-CDK4-1]	> 0.01%	0.04%	> 17% and 17.1%	1.04×10^1	high affinity to HLA-A*02:01	0.2%
NLVPMVATV [pp65NLV, reference compound]	–	–	0.002%	–	–	–
